Assay results reported in patent publication US20180327364A1, “MTOR INHIBITORS AND METHODS OF USE THEREOF” (Brandeis University, priority 2015, published 2018).

How the values were obtained:
Type in all cases: cell-based
HEK-293T cells = assay: CellTiter-Glo proliferation, HEK-293T; conditions: Homo sapiens, 48 h
Protocol: To determine cellular growth, CellTiter-Glo luminescent cell viability assay (Promega) was used per the manufacturer's instruction. To determine cytotoxicity, LDH release was measured with the LDH Cytotoxicity Assay Kit (Pierce) according to the manufacture's protocol. For 4 h assays, 96 well plates were seeded at 75,000 cells/mL for BaF3/p210 cells or K562 cells. For HEK-293T cells, 10,000 cells/well were plated 24 h before treatment. Cells were treated for 4 h at 37° C. and […] was removed from every well and used in the LDH Cytotoxicity assay per the manufacturer's protocol. For 48 h assays, 7,500 cells/mL of BaF3/p210 or K562 cells were incubated with compound at 37° C. for 48 h (200 μL/well). For HEK-293T cells, 1,000 cells/well were plated 24 h prior to compound treatment. After treatment, 50 μL was removed from each well for the LDH assay for all cell lines and 100 μL of mixed cells were removed and used with the CellTiter-Glo kit for K562 and BaF3/p210 cells. For HEK-293T cells, wells were treated directed with the CellTiter-Glo kit. Cytotoxicity or viability was measured by luminosity and absorbance on a microplate reader.

firefly luciferase [1] = assay: Luciferase assay in stably transduced luciferase HEK-293T cells
Protocol: Firefly luciferase and firefly luciferase-eDHFR were cloned into pBABE-puro vector which was a gift from Hartmut Land & Jay Morgenstern & Bob Weinberg (Addgene plasmid #1764). pBABE-puro-luciferase was co-transfected with VSV-G into GP2-293 cells (Retro-X Universal Packaging System, Clonetech, Mountain View, Calif.) with TransIT-2020 (MirusBio) according to TransIT-2020's manufacture's protocol. After 48 h, viral supernatant was harvested, spun down, filtered with a […] syringe filter, and added to HEK-293T supplemented with 8 μg/mL polybrene. After 4 h of infection, the media was replaced with fresh media. 48 h later, media was replaced with media containing 3 μg/mL puromycin. Media was replaced with fresh media containing puromycin every 3-4 days. After 2 weeks of puromycin selection, the cells were grown out from single cell colonies and screened for luciferase expression.
Stably transduced luciferase HEK-293T cells were plated in 96-well plates 24 h prior to treatment with 100 μM of Cbz-B3A, amine-B3A, acetyl-B3A, and Cbz-acetyl. After 4 h, cells were harvested and measured with Luciferase Assay System with Reporter Lysis Buffer from Promega according to the manufacturer's protocol. Before the addition of luciferin, protein concentration was measured by removing 2 μl of lysate from each well and adding it to diluted Bio-Rad Protein Assay Dye Reagent Concentrate, and the absorbance was measured at OD595. The protein concentration was used to normalize luciferase signal. For translation assays, cells were pretreated for 15 min with 100 μg/mL cycloheximide or 6 μM bortezomib. For the recombinant luciferase assay, Quantilum Recombinant Luciferase (Promega) was diluted 1:250,000 in reporter lysis buffer with 1 mg/mL BSA then mixed 1:1 with 200 μM compound in the same buffer for a final dilution of 1:500,000 and 100 μM compound in 20 μL. This was incubated for 10 min at room temperature then measured with Luciferase Assay System with Reporter Lysis Buffer from Promega according to the manufacturer's protocol.

NCI-60 cell lines = assay: NCI-60 DTP Human Tumor Cell Line Screen, all cell lines; conditions: 10 μM, 48 h
Protocol: (§1) Screen was conducted as previously described, performed at Developmental Therapeutics Program NCI/NIH.

[2] = tested on: 4EBP1 phosphorylation by mTORC1; assay: 4EBP1 phosphorylation immunoblot in HEK-293T cells; conditions: 4 h
Protocol: (§2) Quantification of western blots was performed with ImageJ. Cells were lysed in RIPA buffer (1% NP-40, 1% NaDeoxycholate, 0.1% SDS, 10 mM TrisCl, 10 mM β-glycerophosphate, 10 mM Na pyrophosphate, 50 mM NaF, 200 μM Na vanadate, 1 mM EDTA, 500 μM EGTA, 1% benzonase, and supplemented with complete (Roche Diagnostics) protease inhibitors).

firefly luciferase [3] = assay: Luciferase assay in stably transduced luciferase HEK-293T cells; conditions: 100 μM Cbz-B3A, 4 h, anti-HA immunoblot
SR = assay: NCI-60 DTP Human Tumor Cell Line Screen, SR; conditions: 10 μM, 48 h
Protocol: as §1

LC3 A/B II = LC3 A/B II immunoblot (autophagy) in HEK-293T cells; conditions: Cbz-B3A 10 μM, rapamycin 20 nM, 4 h
Protocol: as §2

TSC2 = TSC2 level immunoblot in HEK-293T cells; conditions: 10 μM, 4 h; p=0.19 vs DMSO
Protocol: as §2

[4] = tested on: mTORC2 catalyzed phosphorylation of Akt; assay: Akt phosphorylation immunoblot (mTORC2) in HEK-293T cells; conditions: HEK-293T cells treated with Cbz-B3A
Protocol: as §2

CC(C)(C)OC(=O)/N=C(\NCCC[C@H](NC(=O)OC(C)(C)C)C(=O)NCCCCCCNC(=O)OCc1ccccc1)NC(=O)OC(C)(C)C [Cbz-B3A]
inhibition at 10 µM (HEK-293T cells): 64%
firefly luciferase signal, co-treatment with bortezomib compared to bortezomib alone (firefly luciferase [1]; 6 μM bortezomib pretreatment 15 min, then 100 μM Cbz-B3A 4 h): decreased
luciferase activity, co-treatment with cycloheximide (firefly luciferase [1]; 100 μg/mL cycloheximide pretreatment 15 min, then 100 μM Cbz-B3A 4 h): no further decrease in luciferase activity
wild type luciferase signal (firefly luciferase [1]; HEK-293T cells expressing HA-luciferase, 100 μM, 4 h): decreased the wild type luciferase signal
average decrease in proliferation, all cell lines (NCI-60 cell lines): 29%
4EBP1 phosphorylation (hyper- vs hypo-phosphorylated band) ([2]; Cbz-B3A 10 μM, Cbz-acetyl 10 μM, rapamycin 20 nM): clear shift from hyper-phosphorylation to hypo-phosphorylation
EC50 ([2]; Homo sapiens, HEK-293T, read-out: EC50 of inhibition of 4EBP1 phosphorylation): ~2 µM
decrease in amount of luciferase protein (firefly luciferase [3]): approximately 40%
decrease in proliferation, SR (SR): 83%
LC3 A/B II (autophagy) (LC3 A/B II): increased LC3 A/B II to equivalent levels as rapamycin
amount of TSC2 (TSC2): appeared to increase the amount of TSC2
Akt phosphorylation at Ser473 [4]: No decrease in Akt phosphorylation
